Assay results from patent US20230117470A1, “SUBSTITUTED PYRAZOLE COMPOUNDS AS TOLL RECEPTOR INHIBITORS” (BRISTOL-MYERS SQUIBB COMPANY, priority 2019, published 2023).

Tests used:
Format in all cases: cell-based
human TLR9 = molecular target: T1, human TLR9 (Homo sapiens, UniProt Q9NR96); assay: TLR9 inhibition reporter assay (HEK-Blue cells, SEAP reporter, ODN2006 stimulation); conditions: HEK-Blue cells overexpressing human TLR9, SEAP reporter, ODN2006 5 nM
T1 construct: host or cells: HEK-Blue cells
T1 sequence (Q9NR96 26-1032): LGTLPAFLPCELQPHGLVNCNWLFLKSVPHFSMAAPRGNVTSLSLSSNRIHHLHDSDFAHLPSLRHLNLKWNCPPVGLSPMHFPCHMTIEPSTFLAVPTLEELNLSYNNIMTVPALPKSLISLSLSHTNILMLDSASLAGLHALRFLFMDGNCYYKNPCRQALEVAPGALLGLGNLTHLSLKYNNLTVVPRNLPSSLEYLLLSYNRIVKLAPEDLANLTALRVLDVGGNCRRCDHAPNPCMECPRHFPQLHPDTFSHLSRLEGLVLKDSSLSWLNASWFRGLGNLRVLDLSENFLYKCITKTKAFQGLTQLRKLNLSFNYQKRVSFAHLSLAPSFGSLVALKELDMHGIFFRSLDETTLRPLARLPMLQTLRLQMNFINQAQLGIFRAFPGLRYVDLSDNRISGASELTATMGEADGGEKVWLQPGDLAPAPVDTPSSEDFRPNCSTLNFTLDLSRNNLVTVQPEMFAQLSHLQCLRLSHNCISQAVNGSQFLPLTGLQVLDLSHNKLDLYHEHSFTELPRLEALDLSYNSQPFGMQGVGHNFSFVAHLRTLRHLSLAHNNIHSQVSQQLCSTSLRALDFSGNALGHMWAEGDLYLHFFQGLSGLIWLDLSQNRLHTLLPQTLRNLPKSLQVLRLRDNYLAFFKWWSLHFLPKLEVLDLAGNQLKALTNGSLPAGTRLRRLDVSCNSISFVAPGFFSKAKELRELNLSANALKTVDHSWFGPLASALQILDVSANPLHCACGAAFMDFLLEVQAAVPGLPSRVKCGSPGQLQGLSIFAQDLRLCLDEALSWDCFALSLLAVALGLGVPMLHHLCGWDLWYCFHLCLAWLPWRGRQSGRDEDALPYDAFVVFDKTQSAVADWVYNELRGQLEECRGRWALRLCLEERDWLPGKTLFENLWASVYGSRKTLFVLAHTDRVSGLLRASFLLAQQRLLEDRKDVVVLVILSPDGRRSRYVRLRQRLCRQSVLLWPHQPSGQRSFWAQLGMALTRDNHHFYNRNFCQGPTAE
Procedure: (§1) TLR7/8/9 Inhibition Reporter Assays
(§2) HEK-Blue™-cells (Invivogen) overexpressing human TLR7, TLR8 or TLR9 receptors were used for screening inhibitors of these receptors using an inducible SEAP (secreted embryonic alkaline phosphatase) reporter gene under the control of the IFN-β minimal promoter fused to five NF-κB and AP-1-binding sites. Briefly, cells are seeded into Greiner 384 well plates (15000 cells per well for TLR7, 20,000 for TLR8 and 25,000 for TLR9) and then treated with test compounds in DMSO to yield a final dose response concentration range of 0.05 nM-50 μM. After a 30 minute compound pre-treatment at room temperature, the cells are then stimulated with a TLR7 ligand (gardiquimod at a final concentration of 7.5 μM), TLR8 ligand (R848 at a final concentration of 15.9 μM) or TLR9 ligand (ODN2006 at a final concentration of 5 nM) to activate NF-κB and AP-1 which induce the production of SLA After a 22 hour incubation at 37° C., […], SEAP levels are determined with the addition of HEK-Blue™ Detection reagent (Invivogen), a cell culture medium that allows for detection of SLAP, according to manufacturer's specifications. The percent inhibition is determined as the % reduction in the HEK-Blue signal present in wells treated with agonist plus DMSO alone compared to wells treated with a known inhibitor.

human TLR8 = molecular target: T2, human TLR8 (Homo sapiens, UniProt Q9NR97); assay: TLR8 inhibition reporter assay (HEK-Blue cells, SEAP reporter, R848 stimulation); conditions: HEK-Blue cells overexpressing human TLR8, SEAP reporter, R848 15.9 μM
T2 construct: host or cells: HEK-Blue cells
T2 sequence (Q9NR97 27-1041): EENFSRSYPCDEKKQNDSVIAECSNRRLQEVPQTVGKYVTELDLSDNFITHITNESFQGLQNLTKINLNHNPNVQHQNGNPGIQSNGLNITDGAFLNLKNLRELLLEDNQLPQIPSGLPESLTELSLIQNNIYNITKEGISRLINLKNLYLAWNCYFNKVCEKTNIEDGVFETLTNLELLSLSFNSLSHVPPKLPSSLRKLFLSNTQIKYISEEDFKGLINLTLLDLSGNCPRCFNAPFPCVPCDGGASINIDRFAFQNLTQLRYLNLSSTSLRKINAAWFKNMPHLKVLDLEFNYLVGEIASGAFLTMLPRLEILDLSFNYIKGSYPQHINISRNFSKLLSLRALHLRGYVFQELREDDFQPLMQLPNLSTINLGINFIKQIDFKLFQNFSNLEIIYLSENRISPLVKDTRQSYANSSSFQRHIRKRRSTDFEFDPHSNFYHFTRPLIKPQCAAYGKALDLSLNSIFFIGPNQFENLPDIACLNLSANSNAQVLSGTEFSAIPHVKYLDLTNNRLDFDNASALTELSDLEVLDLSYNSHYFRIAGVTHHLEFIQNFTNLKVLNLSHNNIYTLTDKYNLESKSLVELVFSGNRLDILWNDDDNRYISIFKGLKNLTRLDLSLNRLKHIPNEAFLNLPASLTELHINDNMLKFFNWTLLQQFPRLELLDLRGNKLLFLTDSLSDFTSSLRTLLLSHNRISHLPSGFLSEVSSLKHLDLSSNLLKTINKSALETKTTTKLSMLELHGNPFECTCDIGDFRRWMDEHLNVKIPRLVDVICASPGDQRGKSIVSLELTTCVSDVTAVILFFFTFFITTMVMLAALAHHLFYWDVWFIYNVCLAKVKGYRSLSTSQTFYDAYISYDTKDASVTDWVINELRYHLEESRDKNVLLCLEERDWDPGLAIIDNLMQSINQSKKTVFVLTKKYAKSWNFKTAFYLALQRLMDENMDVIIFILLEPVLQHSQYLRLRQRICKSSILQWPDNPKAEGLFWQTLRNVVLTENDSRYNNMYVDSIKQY
Procedure: as §1, §2

human TLR7 = molecular target: T3, human TLR7 (Homo sapiens, UniProt Q9NYK1); assay: TLR7 inhibition reporter assay (HEK-Blue cells, SEAP reporter, gardiquimod stimulation); conditions: HEK-Blue cells overexpressing human TLR7, SEAP reporter, gardiquimod 7.5 μM
T3 construct: host or cells: HEK-Blue cells
T3 sequence (Q9NYK1 27-1049): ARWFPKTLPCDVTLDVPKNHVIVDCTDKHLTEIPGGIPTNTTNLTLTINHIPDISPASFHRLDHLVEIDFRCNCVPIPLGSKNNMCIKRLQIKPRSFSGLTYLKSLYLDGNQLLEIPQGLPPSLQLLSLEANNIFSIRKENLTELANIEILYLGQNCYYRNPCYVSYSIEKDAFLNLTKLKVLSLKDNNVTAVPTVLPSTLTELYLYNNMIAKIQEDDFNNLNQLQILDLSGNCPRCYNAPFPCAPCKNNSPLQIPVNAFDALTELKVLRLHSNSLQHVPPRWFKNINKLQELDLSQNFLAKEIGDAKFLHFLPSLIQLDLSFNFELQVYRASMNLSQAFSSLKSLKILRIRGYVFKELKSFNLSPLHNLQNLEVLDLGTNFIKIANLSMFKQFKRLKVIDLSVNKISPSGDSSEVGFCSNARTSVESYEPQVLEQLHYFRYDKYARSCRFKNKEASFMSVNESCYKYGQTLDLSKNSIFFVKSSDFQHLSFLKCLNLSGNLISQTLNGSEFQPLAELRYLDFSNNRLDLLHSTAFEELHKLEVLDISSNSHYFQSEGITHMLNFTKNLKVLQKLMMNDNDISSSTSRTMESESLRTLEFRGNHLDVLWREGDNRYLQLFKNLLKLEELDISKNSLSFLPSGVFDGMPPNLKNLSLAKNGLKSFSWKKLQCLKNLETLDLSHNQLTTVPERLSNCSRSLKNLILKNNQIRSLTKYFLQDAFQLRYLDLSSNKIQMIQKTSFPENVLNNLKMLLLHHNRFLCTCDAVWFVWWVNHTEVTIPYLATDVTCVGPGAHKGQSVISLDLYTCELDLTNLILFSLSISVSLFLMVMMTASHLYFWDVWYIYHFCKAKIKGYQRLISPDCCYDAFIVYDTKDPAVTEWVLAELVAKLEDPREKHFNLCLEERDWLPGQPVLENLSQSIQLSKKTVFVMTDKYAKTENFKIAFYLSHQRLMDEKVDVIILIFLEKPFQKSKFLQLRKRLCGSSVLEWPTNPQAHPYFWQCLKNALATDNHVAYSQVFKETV
Procedure: as §1, §2

Structure (SMILES)	IC50 (human TLR9) [nM]	IC50 (human TLR8) [nM]	IC50 (human TLR7) [nM]
Cc1c(C(=O)NC2CCN(C(C)C)CC2)n[nH]c1-c1cc(C)c2ncnn2c1 [Example 179, N-(1-isopropylpiperidin-4-yl)-4-methyl-5-(8-methyl-[1,2,4]triazolo[1,5-a]pyridin-6-yl)-1H-pyrazole-3-carboxamide]	7260	13.5	9.72
Cc1cc(-c2[nH]nc(C(=O)NC3CCC(NC4(C)COC4)CC3)c2C(C)C)cn2ncnc12 (stereo not drawn) [Example 124]	28600	31.5	7.72
Cc1cc(-c2[nH]nc(C3CCC(NCCN(C)C)CC3)c2C(C)C)cn2ncnc12 (single isomer, unassigned) [Example 284]	> 50000	5.12	9.6
Cc1cc(-c2[nH]nc(-c3cnc(N)nc3)c2C(C)C)cn2ncnc12 [Example 228]	8860	1.46	2.18
Cc1cc(-c2[nH]nc(-c3cnc(N)cn3)c2C(C)C)cn2ncnc12 [Example 226]	6780	0.41	0.35
COCCN1CCc2nc(-c3n[nH]c(-c4cc(C)c5ncnn5c4)c3C(C)C)sc2C1 [Example 266]	> 50000	60.2	119
Cc1cc(-c2[nH]nc(C(=O)NC3CCN(CC(=O)N(C)C)CC3)c2C(C)C)cn2ncnc12 [Example 176, N-(1-(2-(dimethylamino)-2-oxoethyl)piperidin-4-yl)-4-isopropyl-5-(8-methyl-[1,2,4]triazolo [1,5-a]pyridin-6-yl)-1H-pyrazole-3-carboxamide]	9580	23.7	23.3
Cc1cc(-c2[nH]nc(C(=O)NCC3CN(C)CCO3)c2C(C)C)cn2ncnc12 (stereo not drawn) [Example 139]	17500	26.3	4.96
CCCN1CC(c2ccc(-c3n[nH]c(-c4cc(OC)c5ncnn5c4)c3C(C)C)cc2)C1 [Example 330]	11400	1.5	8.34
Cc1cc(-c2[nH]nc(C(=O)NC3CCN(C4CCOCC4)CC3)c2CC(F)(F)F)cn2ncnc12 [Example 201]	9250	4.21	6.66
Cc1cc(-c2[nH]nc(CNC3CCNCC3)c2C(C)C)cn2ncnc12 [Example 187]	8720	4.25	10.4
CCN1CCC(c2ccc(-c3n[nH]c(-c4cc(C)c5ncnn5c4)c3C(C)C)cc2)CC1 [Example 310]	19300	0.43	1.45
Cc1cc(-c2[nH]nc(-c3nc4c(s3)CN(CC(C)(C)O)CC4)c2C(C)C)cn2ncnc12 [Example 265]	47700	3.29	14
Cc1cc(-c2[nH]nc(-c3ccc4c(c3)CCN(CC(C)(C)O)C4)c2C(C)C)cn2ncnc12 [Example 264]	22000	22.9	26.8
Cc1cc(-c2[nH]nc(C(=O)NCC3CN(C4COC4)CCO3)c2C(C)C)cn2ncnc12 (stereo not drawn) [Example 136]	42800	4.36	1.69
Cc1cc(-c2[nH]nc(C(=O)NC3CCN(CCC(C)(C)C)CC3)c2C(C)C)cn2ncnc12 [Example 75]	3390	7.55	0.89
Cc1cc(-c2[nH]nc(C(=O)NC3CCN(CCN(C)C)CC3)c2C(C)C)cn2ncnc12 [Example 83]	> 50000	238	6.33
CCN(CC)CC(=O)N1CCC(c2cnc(-c3n[nH]c(-c4cc(OC)c5ncnn5c4)c3C(C)C)cn2)CC1 [Example 404]	> 50000	124	43.6
Cc1cc(-c2[nH]nc(C3CCC(N4CCOCC4)CC3)c2C(C)C)cn2ncnc12 (single isomer, unassigned) [Example 290]	22100	1.09	8.56
Cc1cc(-c2[nH]nc(-c3nc4c(s3)CNCC4)c2C(C)C)cn2ncnc12 [Example 218]	35900	18.6	1.44
Cc1cc(-c2[nH]nc(CN(C)C)c2C(C)C)cn2ncnc12 [Example 184, 1-(4-isopropyl-5-(8-methyl-[1,2,4]triazolo[1,5-a]pyridin-6-yl)-1H-pyrazol-3-yl)-N,N-dimethylmethanamine]	11400	0.84	1.01
